According to patent EP4745135A1 (Gluetacs Therapeutics (Shanghai) Co., Ltd., priority 2023, dated 2025):

What was measured:
[1] = target: T1, human Cereblon WT GST-tagged protein (Homo sapiens, UniProt Q96SW2); assay: CRBN-binding affinity, HTRF (CEREBLON BINDING kit); conditions: for inhibition at 0.5 µM: read-out: Inhibition Rate at 0.5 µM (%); for inhibition at 2 µM: read-out: Inhibition Rate at 2 µM (%)
T1 construct: purchased CISBIO 64BDCRBNPEH

[2] = tested on: GSPT1; assay: Western blot, degradation of substrate protein in hPBMCs; format: cell-based, Human; conditions: 24 hours treatment, compounds at 50 nM and 500 nM (concentration behind the class not stated)
[3] = target: T2, WEE1 (Homo sapiens, UniProt P30291+Q96SW2); assay: as above; format: cell-based; conditions: 24 hours treatment, compounds at 50 nM and 500 nM (concentration behind the class not stated)
T2 construct: effects of the compounds of the present disclosure on the expression of target proteins in cells; endogenous in cells; host or cells: human PBMCs (Milecell Biotechnologies)

[4] = target: T3, IKZF3 (Homo sapiens, UniProt Q96SW2+Q9UKT9); assay: as above; format: cell-based; conditions: 24 hours treatment, compounds at 50 nM and 500 nM (concentration behind the class not stated)
T3 construct: effects of the compounds of the present disclosure on the expression of target proteins in cells; endogenous in cells; host or cells: human PBMCs (Milecell Biotechnologies)

[5] = target: T4, IKZF2 (Homo sapiens, UniProt Q96SW2+Q9UKS7); assay: as above; format: cell-based; conditions: 24 hours treatment, compounds at 50 nM and 500 nM (concentration behind the class not stated)
T4 construct: effects of the compounds of the present disclosure on the expression of target proteins in cells; endogenous in cells; host or cells: human PBMCs (Milecell Biotechnologies)

[6] = target: T5, CK1α (Homo sapiens, UniProt P48729+Q96SW2); assay: as above; format: cell-based; conditions: 24 hours treatment, compounds at 50 nM and 500 nM (concentration behind the class not stated)
T5 construct: effects of the compounds of the present disclosure on the expression of target proteins in cells; endogenous in cells; host or cells: human PBMCs (Milecell Biotechnologies)

[7] = target: T6, IKZF1 (Homo sapiens, UniProt Q13422+Q96SW2); assay: as above; format: cell-based; conditions: 24 hours treatment, compounds at 50 nM and 500 nM (concentration behind the class not stated)
T6 construct: effects of the compounds of the present disclosure on the expression of target proteins in cells; endogenous in cells; host or cells: human PBMCs (Milecell Biotechnologies)
T6 sequence (Q13422 whole entry): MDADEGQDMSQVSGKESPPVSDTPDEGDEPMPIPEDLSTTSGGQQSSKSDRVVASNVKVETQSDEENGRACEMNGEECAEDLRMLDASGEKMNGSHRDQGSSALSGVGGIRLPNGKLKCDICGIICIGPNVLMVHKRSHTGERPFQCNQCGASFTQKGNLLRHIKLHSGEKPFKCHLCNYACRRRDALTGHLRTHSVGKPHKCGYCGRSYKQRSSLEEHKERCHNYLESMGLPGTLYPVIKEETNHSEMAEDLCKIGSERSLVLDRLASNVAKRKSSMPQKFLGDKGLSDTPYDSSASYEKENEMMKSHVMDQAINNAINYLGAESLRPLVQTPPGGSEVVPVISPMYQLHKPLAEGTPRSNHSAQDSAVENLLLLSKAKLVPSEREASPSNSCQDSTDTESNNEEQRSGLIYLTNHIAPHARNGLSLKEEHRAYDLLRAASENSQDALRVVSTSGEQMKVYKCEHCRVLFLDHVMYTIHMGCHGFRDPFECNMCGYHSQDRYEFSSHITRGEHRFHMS
T6 sequence (Q96SW2 whole entry): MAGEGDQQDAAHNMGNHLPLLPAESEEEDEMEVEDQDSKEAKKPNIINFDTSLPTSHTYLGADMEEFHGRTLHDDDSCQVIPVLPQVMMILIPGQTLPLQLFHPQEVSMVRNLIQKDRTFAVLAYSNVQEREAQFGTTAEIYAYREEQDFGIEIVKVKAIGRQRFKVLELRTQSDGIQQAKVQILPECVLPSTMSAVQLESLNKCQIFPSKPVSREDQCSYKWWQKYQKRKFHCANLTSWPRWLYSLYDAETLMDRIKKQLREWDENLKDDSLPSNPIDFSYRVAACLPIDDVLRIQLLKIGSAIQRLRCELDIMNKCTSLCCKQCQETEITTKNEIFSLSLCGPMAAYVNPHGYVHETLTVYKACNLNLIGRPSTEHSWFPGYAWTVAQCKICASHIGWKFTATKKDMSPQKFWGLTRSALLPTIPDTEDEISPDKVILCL
T6 sequence (Q16531 whole entry partner): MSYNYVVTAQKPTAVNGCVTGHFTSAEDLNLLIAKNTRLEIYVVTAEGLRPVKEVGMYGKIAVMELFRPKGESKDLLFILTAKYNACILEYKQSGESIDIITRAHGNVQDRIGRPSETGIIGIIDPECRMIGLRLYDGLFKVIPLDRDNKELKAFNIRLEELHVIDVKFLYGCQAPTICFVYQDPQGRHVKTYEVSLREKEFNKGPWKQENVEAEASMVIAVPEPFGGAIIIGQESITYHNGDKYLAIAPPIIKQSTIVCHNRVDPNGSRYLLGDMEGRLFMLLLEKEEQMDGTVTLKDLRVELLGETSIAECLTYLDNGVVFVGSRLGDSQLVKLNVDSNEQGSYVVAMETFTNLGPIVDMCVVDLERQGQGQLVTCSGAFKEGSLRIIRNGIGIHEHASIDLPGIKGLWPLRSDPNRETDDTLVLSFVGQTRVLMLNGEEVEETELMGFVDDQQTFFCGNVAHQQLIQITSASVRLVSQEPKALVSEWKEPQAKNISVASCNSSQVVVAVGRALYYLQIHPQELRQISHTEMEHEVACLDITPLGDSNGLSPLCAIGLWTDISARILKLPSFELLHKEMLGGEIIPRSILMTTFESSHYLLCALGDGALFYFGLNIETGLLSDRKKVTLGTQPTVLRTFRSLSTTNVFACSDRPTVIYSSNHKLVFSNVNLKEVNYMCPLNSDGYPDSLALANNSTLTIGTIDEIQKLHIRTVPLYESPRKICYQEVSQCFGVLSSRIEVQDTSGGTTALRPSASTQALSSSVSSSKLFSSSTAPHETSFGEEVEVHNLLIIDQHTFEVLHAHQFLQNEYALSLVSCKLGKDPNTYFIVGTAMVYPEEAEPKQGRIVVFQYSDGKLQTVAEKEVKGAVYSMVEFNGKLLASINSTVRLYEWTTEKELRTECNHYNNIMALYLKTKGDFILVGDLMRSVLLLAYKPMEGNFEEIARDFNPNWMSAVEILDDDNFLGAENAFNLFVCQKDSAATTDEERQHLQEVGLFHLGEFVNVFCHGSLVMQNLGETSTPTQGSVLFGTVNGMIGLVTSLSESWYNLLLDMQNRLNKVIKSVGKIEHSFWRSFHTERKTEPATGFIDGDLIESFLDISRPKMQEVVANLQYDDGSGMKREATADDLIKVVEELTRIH

T5 sequence (P48729 whole entry): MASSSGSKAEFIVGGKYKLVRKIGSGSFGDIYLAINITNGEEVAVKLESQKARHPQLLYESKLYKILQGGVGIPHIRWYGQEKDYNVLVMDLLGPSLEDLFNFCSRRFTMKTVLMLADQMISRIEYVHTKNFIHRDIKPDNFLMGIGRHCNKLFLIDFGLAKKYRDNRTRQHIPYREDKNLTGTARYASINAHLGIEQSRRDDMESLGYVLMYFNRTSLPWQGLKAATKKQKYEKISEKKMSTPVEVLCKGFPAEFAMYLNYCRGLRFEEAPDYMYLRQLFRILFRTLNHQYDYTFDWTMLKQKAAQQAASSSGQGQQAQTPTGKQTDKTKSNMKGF
T5 sequence (Q96SW2 whole entry): as the sequence (Q96SW2 whole entry) above
T5 sequence (Q16531 whole entry partner): as the sequence (Q16531 whole entry partner) above
T1 sequence (Q96SW2 whole entry): as the sequence (Q96SW2 whole entry) above
T4 sequence (Q9UKS7 whole entry): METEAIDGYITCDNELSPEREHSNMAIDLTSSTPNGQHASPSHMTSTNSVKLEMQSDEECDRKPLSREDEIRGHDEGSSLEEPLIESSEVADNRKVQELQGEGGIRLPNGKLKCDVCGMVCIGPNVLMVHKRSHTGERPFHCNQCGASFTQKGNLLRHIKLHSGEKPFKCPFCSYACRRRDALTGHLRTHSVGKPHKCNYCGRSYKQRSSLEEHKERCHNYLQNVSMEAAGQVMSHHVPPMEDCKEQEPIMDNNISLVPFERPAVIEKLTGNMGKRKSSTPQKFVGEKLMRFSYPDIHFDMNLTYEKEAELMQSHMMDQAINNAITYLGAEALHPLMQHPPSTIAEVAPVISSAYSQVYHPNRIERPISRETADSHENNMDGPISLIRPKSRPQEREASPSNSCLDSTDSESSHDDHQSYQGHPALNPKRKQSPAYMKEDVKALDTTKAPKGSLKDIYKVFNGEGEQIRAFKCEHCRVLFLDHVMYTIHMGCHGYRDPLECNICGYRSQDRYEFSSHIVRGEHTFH
T4 sequence (Q96SW2 whole entry): as the sequence (Q96SW2 whole entry) above
T4 sequence (Q16531 whole entry partner): as the sequence (Q16531 whole entry partner) above
T2 sequence (P30291 whole entry): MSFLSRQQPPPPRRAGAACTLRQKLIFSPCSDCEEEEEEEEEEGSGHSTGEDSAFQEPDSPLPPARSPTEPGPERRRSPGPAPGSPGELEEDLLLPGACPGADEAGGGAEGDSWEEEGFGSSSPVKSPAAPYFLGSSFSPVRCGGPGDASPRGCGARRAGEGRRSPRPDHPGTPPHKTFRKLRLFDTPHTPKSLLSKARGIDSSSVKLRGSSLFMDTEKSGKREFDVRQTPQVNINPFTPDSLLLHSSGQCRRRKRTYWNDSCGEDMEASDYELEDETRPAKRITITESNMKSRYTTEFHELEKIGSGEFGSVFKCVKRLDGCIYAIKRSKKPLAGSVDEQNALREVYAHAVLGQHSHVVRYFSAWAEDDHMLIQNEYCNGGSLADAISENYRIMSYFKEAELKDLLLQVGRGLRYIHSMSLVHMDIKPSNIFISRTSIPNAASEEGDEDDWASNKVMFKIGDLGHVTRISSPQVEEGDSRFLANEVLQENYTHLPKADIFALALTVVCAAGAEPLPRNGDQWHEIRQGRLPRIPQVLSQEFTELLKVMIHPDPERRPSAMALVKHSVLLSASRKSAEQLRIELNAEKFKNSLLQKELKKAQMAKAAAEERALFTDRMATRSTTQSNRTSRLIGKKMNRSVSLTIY
T2 sequence (Q96SW2 whole entry): as the sequence (Q96SW2 whole entry) above
T2 sequence (Q16531 whole entry partner): as the sequence (Q16531 whole entry partner) above
T3 sequence (Q9UKT9 whole entry): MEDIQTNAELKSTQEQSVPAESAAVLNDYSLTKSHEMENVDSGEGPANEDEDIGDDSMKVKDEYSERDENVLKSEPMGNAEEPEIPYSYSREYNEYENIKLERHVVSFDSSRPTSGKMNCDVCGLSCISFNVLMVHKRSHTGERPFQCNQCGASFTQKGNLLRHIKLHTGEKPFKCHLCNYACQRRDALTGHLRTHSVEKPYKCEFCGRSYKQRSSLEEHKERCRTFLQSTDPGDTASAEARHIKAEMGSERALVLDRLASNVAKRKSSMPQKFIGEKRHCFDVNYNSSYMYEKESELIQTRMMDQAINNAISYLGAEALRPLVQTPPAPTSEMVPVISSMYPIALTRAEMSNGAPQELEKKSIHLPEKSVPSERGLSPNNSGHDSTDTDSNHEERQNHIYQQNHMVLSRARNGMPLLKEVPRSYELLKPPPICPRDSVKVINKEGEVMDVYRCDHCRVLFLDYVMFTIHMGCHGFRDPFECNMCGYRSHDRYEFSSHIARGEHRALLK
T3 sequence (Q96SW2 whole entry): as the sequence (Q96SW2 whole entry) above
T3 sequence (Q16531 whole entry partner): as the sequence (Q16531 whole entry partner) above

| Structure (SMILES) | inhibition at 0.5 µM [1] [%] | inhibition at 2 µM [1] [%] | GSPT1 substrate protein remaining % [2] | Wee1 substrate protein remaining % [3] | IKZF3 substrate protein remaining % [4] | IKZF2 substrate protein remaining % [5] | CK1α substrate protein remaining % [6] | IKZF 1 substrate protein remaining % [7] |
| --- | --- | --- | --- | --- | --- | --- | --- | --- |
| Cc1cscc1N1CCN(Cc2cccc3c2CN(C2CCC(=O)NC2=O)C3=S)CC1 (stereo not shown) [GT-08306, 3-(4-((4-(4-methylthiophen-3-yl)piperazin-1-yl)methyl)-1-thioxoisoindolin-2-yl)piperidine-2,6-dione] | 53 to 60 | 80 to 100 | B (80%< substrate protein remaining %≤ 100%) | A (0% ≤ substrate protein remaining % ≤ 80%) | B (80%< substrate protein remaining %≤ 100%) | B (80%< substrate protein remaining %≤ 100%) | B (80%< substrate protein remaining %≤ 100%) | B (80%< substrate protein remaining %≤ 100%) |
| Cc1ccc(C2=CCN(Cc3cccc4c3CN(C3CCC(=O)NC3=O)C4=S)CC2)s1 (stereo not shown) [GT-08307, 3-(4-((4-(5-methylthiophen-2-yl)-3,6-dihydropyridin-1(2H)-yl)methyl)-1-thioxoisoindolin-2-yl)piperidine-2,6-dione] | 53 to 60 | 80 to 100 | B (80%< substrate protein remaining %≤ 100%) | A (0% ≤ substrate protein remaining % ≤ 80%) | B (80%< substrate protein remaining %≤ 100%) | B (80%< substrate protein remaining %≤ 100%) | B (80%< substrate protein remaining %≤ 100%) | B (80%< substrate protein remaining %≤ 100%) |
| Cc1cscc1C1=CCN(Cc2cccc3c2CN(C2CCC(=O)NC2=O)C3=S)CC1 (stereo not shown) [GT-08308, 3-(4-((4-(4-methylthiophen-3-yl)-3,6-dihydropyridin-1(2H)-yl)methyl)-1-thioxoisoindolin-2-yl)piperidine-2,6-dione] | 53 to 60 | 60 to 80 | B (80%< substrate protein remaining %≤ 100%) | A (0% ≤ substrate protein remaining % ≤ 80%) | B (80%< substrate protein remaining %≤ 100%) | B (80%< substrate protein remaining %≤ 100%) | B (80%< substrate protein remaining %≤ 100%) | B (80%< substrate protein remaining %≤ 100%) |
| Cc1cscc1C1CCN(Cc2cccc3c2CN(C2CCC(=O)NC2=O)C3=S)CC1 (stereo not shown) [GT-08309, 3-(4-((4-(4-methylthiophen-3-yl)piperidin-1-yl)methyl)-1-thioxoisoindolin-2-yl)piperidine-2,6-dione] | 53 to 60 | 80 to 100 | B (80%< substrate protein remaining %≤ 100%) | A (0% ≤ substrate protein remaining % ≤ 80%) | B (80%< substrate protein remaining %≤ 100%) | B (80%< substrate protein remaining %≤ 100%) | B (80%< substrate protein remaining %≤ 100%) | B (80%< substrate protein remaining %≤ 100%) |
| O=C1CCC(N2Cc3c(CN4CC=C(c5ccco5)CC4)cccc3C2=S)C(=O)N1 (stereo not shown) [GT-08311, 3-(4-((4-(furan-2-yl)-3,6-dihydropyridin-1 (2H)-yl)methyl)-1-thioxoisoindolin-2-yl)piperidine-2,6-dione] | 60 to 80 | 80 to 100 | B (80%< substrate protein remaining %≤ 100%) | A (0% ≤ substrate protein remaining % ≤ 80%) | B (80%< substrate protein remaining %≤ 100%) | B (80%< substrate protein remaining %≤ 100%) | B (80%< substrate protein remaining %≤ 100%) | B (80%< substrate protein remaining %≤ 100%) |
| Cc1ccc(C2CCN(Cc3cccc4c3CN(C3CCC(=O)NC3=O)C4=S)CC2)s1 (stereo not shown) [GT-08312, 3-(4-((4-(5-methylthiophen-2-yl)piperidin-1-yl)methyl)-1-thioxoisoindolin-2-yl)piperidine-2,6-dione] | 53 to 60 | 80 to 100 | B (80%< substrate protein remaining %≤ 100%) | A (0% ≤ substrate protein remaining % ≤ 80%) | B (80%< substrate protein remaining %≤ 100%) | B (80%< substrate protein remaining %≤ 100%) | B (80%< substrate protein remaining %≤ 100%) | B (80%< substrate protein remaining %≤ 100%) |
| O=C1CCC(N2Cc3c(CN4CCN(c5ccsc5)CC4)cccc3C2=S)C(=O)N1 (stereo not shown) [GT-08313, 3-(4-((4-(thiophen-3-yl)piperazin-1-yl)methyl)-1-thioxoisoindolin-2-yl)piperidine-2,6-dione] | 40 to 53 | 60 to 80 | B (80%< substrate protein remaining %≤ 100%) | A (0% ≤ substrate protein remaining % ≤ 80%) | B (80%< substrate protein remaining %≤ 100%) | A (0% ≤ substrate protein remaining % ≤ 80%) | B (80%< substrate protein remaining %≤ 100%) | B (80%< substrate protein remaining %≤ 100%) |
| O=C1CCC(N2Cc3c(CN4CCC(c5ccsc5)CC4)cccc3C2=S)C(=O)N1 (stereo not shown) [GT-08315, 3-(4-((4-(thiophen-3-yl)piperidin-1-yl)methyl)-1-thioxoisoindolin-2-yl)piperidine-2,6-dione] | 40 to 53 | 60 to 80 | B (80%< substrate protein remaining %≤ 100%) | A (0% ≤ substrate protein remaining % ≤ 80%) | B (80%< substrate protein remaining %≤ 100%) | B (80%< substrate protein remaining %≤ 100%) | B (80%< substrate protein remaining %≤ 100%) | B (80%< substrate protein remaining %≤ 100%) |
| O=C1CCC(N2Cc3c(CN4CCC(c5ccoc5)CC4)cccc3C2=S)C(=O)N1 (stereo not shown) [GT-08317, 3-(4-((4-(furan-3-yl)piperidin-1-yl)methyl)-1-thioxoisoindolin-2-yl)piperidine-2,6-dione] | 40 to 53 | 60 to 80 | B (80%< substrate protein remaining %≤ 100%) | A (0% ≤ substrate protein remaining % ≤ 80%) | A (0% ≤ substrate protein remaining % ≤ 80%) | A (0% ≤ substrate protein remaining % ≤ 80%) | B (80%< substrate protein remaining %≤ 100%) | B (80%< substrate protein remaining %≤ 100%) |
| Cc1cc(C2=CCN(Cc3cccc4c3CN(C3CCC(=O)NC3=O)C4=S)CC2)cs1 (stereo not shown) [GT-08318, 3-(4-((4-(5-methylthiophen-3-yl)-3,6-dihydropyridin-1(2H)-yl)methyl)-1-thioxoisoindolin-2-yl)piperidine-2,6-dione] | 40 to 53 | 60 to 80 | B (80%< substrate protein remaining %≤ 100%) | A (0% ≤ substrate protein remaining % ≤ 80%) | A (0% ≤ substrate protein remaining % ≤ 80%) | B (80%< substrate protein remaining %≤ 100%) | B (80%< substrate protein remaining %≤ 100%) | B (80%< substrate protein remaining %≤ 100%) |
| O=C1CCC(N2Cc3c(CN4CC=C(c5ccoc5)CC4)cccc3C2=S)C(=O)N1 (stereo not shown) [GT-08319, 3-(4-((4-(furan-3-yl)-3,6-dihydropyridin-1 (2H)-yl)methyl)-1-thioxoisoindolin-2-yl)piperidine-2,6-dione] | 40 to 53 | 80 to 100 | B (80%< substrate protein remaining %≤ 100%) | A (0% ≤ substrate protein remaining % ≤ 80%) | A (0% ≤ substrate protein remaining % ≤ 80%) | B (80%< substrate protein remaining %≤ 100%) | B (80%< substrate protein remaining %≤ 100%) | B (80%< substrate protein remaining %≤ 100%) |
